Experimental data published in patent US20130157261A1, “Compositions and Methods for Quantitative Histology, Calibration of Images in Fluorescence Microscopy, and ddTUNEL Analyses” (The Methodist Hospital Research Institute, priority 2011, published 2013).

Columns and labels:
[1] = test system: Caspase-3; conditions: NHA, 14.4 μM thimerosal, 1 hr, vs control
Experimental: (§1) Fixed cells were permeabilized using 1×PBS with 0.1% Triton X-100®. Hydrazine reactive aldehyde/ketones were labeled using 225 μM Biotin-XX hydrazide (Hensley, 2009) (Cat. No. B2600) and visualized using Texas Red-Avidin (Cat. No. A820). The activity of Caspase-3 in fixed, 0.1% Triton-permeabilized cells was measured using the R110-EnzChek® Assay Kit (Molecular Probes, Cat. No. E13184), and incubating cells for 1 h at 37° C. (Scott et al., 2003).
(§2) 3% FCS was present in the NHA medium throughout the time-course. To generate the time-course shown in FIG. 17A and FIG. 17B, NHA were exposed to Mitotracker, H2DCFAM and Hoechst at t=0.

[2] = test system: normal human astrocytes (NHA)
Experimental: (§3) Normal human astrocytes (NHA) were obtained from Lonza (Walkersville, Md., USA) and grown subject to their recommendations. NHA were grown to confluency in Astrocyte Cell Basal Medium supplemented with 3% FBS, Glutamine, Insulin, fhEGF, GA-1000 and ascorbic acid in 16-well Lab-Tek slide chambers (Nalge Nunc, Rochester, N.Y., USA), in a total volume of 240 μL.
NHA were incubated for 1 hour with probes before fixation. Fixation in buffered paraformaldehyde (PFA) was performed in two stages. Firstly, a […] of ice-cold 8% PFA was added to each well, then gently aspirated and the wells were twice washed with ice-cold 2% PFA and then allowed to completely fix at 4° C. After fixation, cells were washed twice in 1×PBS (Thermo Fisher Scientific, Rockford, Ill., USA). The tanks were then removed from the slides, the well area covered with Fluoromount-G (SouthernBiotech, Ill., USA), cover-slipped and sealed with nail varnish.
DNA was visualized using 1 μM Hoechst 33258 (Cat. No. H1398), mitochondrial membrane potential with 500 nM Mitotracker® Red (Dagda et al., 2009) (Cat. No. M22425), hydrogen peroxide using 5 μM H2DCFAM (Whiteman et al., 2009; Setsukinai et al., 2003) (Cat. No. D399), mitochondrial superoxide generation with 5 μM MitoSOX™ Red (Abramov et al., 2010) (Cat. No. M36008), HO. was assayed using 5 μM hydroxyphenyl fluorescein (Setsukinai et al., 2003) (HPF) (Cat. No. H36004), with reagents obtained from Molecular Probes (Eugene, Oreg., USA).
as §2

[3] = test system: normal human astrocytes (NHA); conditions: 14.4 μM thimerosal
Experimental: NHA were incubated for 1 hour with probes before fixation. Fixation in buffered paraformaldehyde (PFA) was performed in two stages. Firstly, a 50-4 aliquot of ice-cold 8% PFA was added to each well, then gently aspirated and the wells were twice washed with ice-cold 2% PFA and then allowed to completely fix at 4° C. After fixation, cells were washed twice in 1×PBS (Thermo Fisher Scientific, Rockford, Ill., USA). The tanks were then removed from the slides, the well area covered with Fluoromount-G (SouthernBiotech, Ill., USA), cover-slipped and sealed with nail varnish.

[4] = test system: normal human astrocytes (NHA); remark: listed apart in the source
Text: as §2

[5] = test system: normal human astrocytes (NHA); conditions: 14.4 μM thimerosal, 1 hr, vs control (FIG. 21)
Experimental: as §3, §1, §2

[6] = 14.4 μM thimerosal, 1 hr, vs control (FIG. 21)

## C[CH2][Hg][S]c1ccccc1C(=O)[O-].[Na+] [Thimerosal]
[1]
  increase in Caspase-3 activity: five-fold
[2]; 14.4 μM thimerosal, 1 hr
  increase in HO. greater than the increase in superoxide generation: ≈ 80%
  increase in superoxide generation per cell: 90%
[2]; 14.4 μM thimerosal, 1 hr, deconvolution of signals
  more HO. generation per superoxide: 60%
[2]; [6]
  increase in HO.: 300%
  increase in internal mitochondrial steady state level of superoxide: ≈ 70%
[2]; 60 min, 0-14.4 μM
  thimerosal concentration at which a loss of mitochondrial signal and of DCF was observed: > 7.2 µM
[3]
  time at which levels of cellular DCF began to fall: > 40 min
[3]; 60 min, fit of intensity profiles
  amount of ROS (DCF) generated by mitochondria vs control mitochondria: four times
[3]; 60 min, vs control
  increase in ROS (DCF): two-fold
[3]; 1 hr, vs control
  increase in steady-state production of reactive oxidants (H2DCF-AM): 200%
[4]; [6]
  increase in 3′OH DNA nicks: 300%
  increase in levels of mitochondrial DNA breaks: 240%
  increase in levels of oxidized bases/apurinic or apyrimidinic sites: 460%
[4]; Thimerosal treatment
  increase in levels of oxidant damaged mitochondrial DNA bases: five-fold
[5]
  increase in cellular hydrazine reactive carbonyls (matches superoxide increase): ≈ 70%
